Structures can show the parent of a compound that is named as a salt. Where two headings read alike, the source gives them in different places.
Molecular target: T1, leukotriene B4 specific receptor on the membrane of human neutrophils (Homo sapiens, UniProt Q15722)
T1 construct: incubating neutrophils (1×10^7 cells) with 0.1-0.2 nM ^3 H-LTB4; endogenous in cells; host or cells: human peripheral blood neutrophils (buffy coats of two blood donors)
Assay: Inhibition of Binding of ^3 H-LTB4 to Peripheral Human Neutrophils
Conditions: for inhibition at 10 µM: read-out: LTB4 Binding Inhibition; for inhibition at 1 µM: drug concentration 10^-6 M; for inhibition at 0.1 µM: drug concentration 10^-7 M
Procedure: The effectiveness of compounds to inhibit the binding of leukotriene B4 to a specific receptor on the membrane of human neutrophils was measured by using an adaptation of a radio-ligand binding assay developed by Goldman and Goetzl, J. Immunol., 129, 1600 (1982). Other investigators have developed similar assays (see, e.g., Kreisle, et al., J. Exp. Med., 157, 628 (1983) and Lin, et al., Prostaglandins, 28, 837 (1984)).
Cells used in the assay were isolated by standard techniques of centrifugation on Ficol-Hypaque, dextran 70 sedimentation and hypotonic lysis. The following procedure was used. Freshly-prepared buffy coat layers from two individuals were obtained from a local blood donor center. The cells were mixed and diluted to 484 ml. with phosphate buffered saline containing heparin (10 units/ml) and heat-inactivated calf serum (5%). This was divided into 20 ml. aliquots and the aliquots layered on top of Ficoll-Paque (12 ml.). The material was then centrifuged at 500 g. for 40 minutes at room temperature. The resulting upper layer of platelets and mononuclear cells was discarded. The lower layer containing erythrocytes and neutrophils was retained. Buffer was added (1 ml. per 4 ml. of lower layer) and the suspension mixed. For each milliliter of this mixture, 0.33 ml. of 6% Macrodex was added. After stirring, the cels were allowed to sediment for 1 hour at 37° C. The resulting erythrocyte pellet was discarded and the neutrophil enriched supernatant fluid centrifuged at 500 g. for 10 minutes at 4° C. Erythrocytes still present in this cell pellet were lysed by incubating the cells with 5-8 ml. ice-cold distilled water for 30-45 seconds. Subsequently, the volume was made up to 50 ml. by addition of ice-cold buffer and the cells resuspended. The suspension was then centrifuged at 300 g. for 10 minutes at 4° C. The cells were finally resuspended at a cell density of 2×10^7 cells/ml in the assay buffer. This buffer Consisted of Hanks' balanced salt solution and 0.1% ovalbumin (pH 7.3).
The radio-ligand binding assay was conducted by incubating neutrophils (1×10^7 cells) with 0.1-0.2 nM ^3 H-LTB4 (sp. act. 150-220 Curies/mmol) and test compound (1×10^-5 M and 1×10^-6 M) for 10 minutes at 4° C. The amount of bound ^3 H-LTB4 was then measured and compared with the amount bound in the absence of test compound. The assay was carried out in microcentrifuge tubes by adding first 10 μl test compound dissolved in DMSO, followed by adding 20 μl ^3 H-LTB4 diluted in assay buffer, and finally adding 500 μl of the cell suspension pension. At the end of the 10 minutes incubation, 300 μl of a mixture of dibutyl and dinonyl phthalate (7:2) were added and the tubes centrifuged for 2 minutes in a microcentrifuge. The radioactivity bound to the cell pellet was measured by scintillation spectroscopy. Appropriate corrections for nonspecific bonding of ^3 H-LTB4 were made.

[1] = drug concentration 10^-5 M, 4° C., 10 minutes

T1 sequence (Q15722 whole entry): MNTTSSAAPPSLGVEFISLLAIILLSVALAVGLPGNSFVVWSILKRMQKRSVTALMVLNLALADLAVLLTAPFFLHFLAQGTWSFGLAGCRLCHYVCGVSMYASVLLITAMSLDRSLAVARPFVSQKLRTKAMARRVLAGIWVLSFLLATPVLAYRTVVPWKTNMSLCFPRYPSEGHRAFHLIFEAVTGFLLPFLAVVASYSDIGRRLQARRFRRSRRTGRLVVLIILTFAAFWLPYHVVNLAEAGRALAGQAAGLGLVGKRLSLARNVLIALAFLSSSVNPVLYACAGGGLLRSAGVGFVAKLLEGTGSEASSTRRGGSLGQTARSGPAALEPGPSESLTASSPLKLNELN

| inhibition at 10 µM [1] | inhibition at 1 µM (4° C., 10 minutes) | inhibition at 0.1 µM (4° C., 10 minutes) | SMILES | inhibition at 10 µM |
| --- | --- | --- | --- | --- |
| 101% | 85% |  | CCc1cc(C(C)=O)c(O)cc1OCCCCCCC(=O)Nc1nnn[nH]1 [Example 145, 7-(4-Acetyl-2-ethyl-5-hydroxyphenoxy)-N-1H-tetrazol-5-ylheptanamide] |  |
| 32% | 5% |  | C=CCc1cc(C(=O)c2ccccc2)c(O)cc1OCCCCC#N [Example 104, 5-(4-Benzoyl-5-hydroxy-2-allylphenoxy)pentanenitrile] |  |
| 97% | 57% |  | C=CCc1cc(C(C)=O)c(O)cc1OCCCCCC(C)=O [Example 102] |  |
| 97% | 64% |  | CSCc1cc(C(C)=O)c(O)cc1OCCCCCCC#N [Example 128, 7-[4-Acetyl-5-hydroxy-2-(methylthiomethyl)-phenoxy]heptanenitrile] |  |
| 83% | 38% |  | CCCc1cc(C(C)=O)c(O)cc1OCCCCC#N [Example 118, 5-(4-Acetyl-5-hydroxy-2-propylphenoxy)-pentanenitrile] |  |
| 43% | 22% |  | CCc1cc(C(C)=O)c(O)cc1OCCCCCN [Example 137, 1-{4-[(5-Aminopentyl)oxy]-5-ethyl-2-hydroxyphenyl}ethanone] |  |
| 2% | 3% |  | CCOC(=O)c1ccc(COc2cc(O)c(C(C)=O)cc2CC)cc1O [Example 147, 4-[(4-Acetyl-2-ethyl-5-hydroxyphenoxy)methyl]-2-hydroxybenzoic acid, ethyl ester] |  |
| 97% | 65% | 6% | CCc1cc(C(C)=O)c(O)cc1OCCCCCC(C)(C)C(=O)N(C)O [Example 149, 7-(4-Acetyl-2-ethyl-5-hydroxyphenoxy)-N-hydorxy-N,2,2-trimethylheptanamide] |  |
| 63% | 20% |  | CCc1cc(C(C)=O)c(O)cc1OCCCCc1nnnn1CC(=O)O [Example 144, 5-[4-(4-Acetyl-2-ethyl-5-hydroxyphenoxy)-butyl]-1H-tetrazole-1-acetic acid] |  |
| 76% | 35% |  | C=CCc1cc(C(=O)CC)c(O)cc1OCCCCC#N [Example 105, 5-[5-Hydroxy-4-(1-oxopropyl)-2-allylphenoxy]pentanenitrile] |  |
|  | 41% | 3% | CCc1cc(C(C)=NO)c(O)cc1OCCCCCC(C)(C)C(=O)O [Example 152, 7-{4-[-(Hydroxyimino)ethyl]-2-ethyl-5-hydroxyphenoxy}-2,2-dimethylheptanoicacid] |  |
| 91% | 53% |  | C=CCc1cc(C(C)=O)c(O)cc1OCCCCCC(=O)N(C)C [Example 97, 6-(4-Acetyl-5-hydroxy-2-allylphenoxy)-N,N-dimethylhexanamide] |  |
| 69% | 27% |  | CCc1cc(C(C)=O)c(O)cc1OCCCCc1nnn(CC(=O)O)n1 [Example 143, 5-[4-(4-Acetyl-2ethyl-5-hydroxyphenoxy)-butyl]-2H-tetrazole-2-acetic acid] |  |
| 47% | 7% |  | COCc1cc(C(C)=O)c(O)cc1OCCCCCCC#N [Example 129, 7-[4-Acetyl-5-hydroxy-2-(methoxymethyl)phenoxy]-hdptanentrile] |  |

Continued, compound first:

| SMILES | inhibition at 10 µM [1] | inhibition at 1 µM (4° C., 10 minutes) | inhibition at 0.1 µM (4° C., 10 minutes) | inhibition at 10 µM |
| --- | --- | --- | --- | --- |
| C=CCc1cc(C(C)=O)c(O)cc1OCCCC [Example 40, 4-Butoxy-2-hydroxy-5-allylacetophenone] | 31% | 8% |  |  |
| C=CCc1cc(C(C)=O)c(O)cc1OCCCCO [Example 44, 4-(4-Hydroxybutoxy)-5-allyl-2-huydroxy-aoetophenone] | 47% | 9% |  |  |
| CC(=O)c1cc(C)c(OCCCCC#N)cc1O [Example 28, 5-(4-Acetyl-2-methyl-5-hydroxyphenoxy)-pentanenitrile] | 77% | 32% |  |  |
| C=CCc1cc(C(C)=O)c(O)cc1OCCCCCC(=O)O [Example 86, 6-(4-Acetyl-2-allyl-5-hydroxyphenoxy)hexanoic acid] | 73% | 23% |  |  |
| C=CCc1cc(C(C)=O)c(O)cc1OCCCCCCC#N [Example 24, 7-(4-Acetyl-5-hydroxy-2-allylphenoxy)-] | 94% | 59% |  |  |
| CC(=O)c1cc(C(C)=O)c(OCCCCC#N)cc1O [Example 16, 5-(2,4-Diacetyl-5-hydroxy-phenoxy)pentanenitrile] | 8% | -7% |  |  |
| CCc1cc(C(C)=O)c(O)cc1OCc1cccc(C(=O)O)c1 [Example 84] | 81% | 28% |  |  |
| CCCCCCc1cc(C(C)=O)c(O)cc1OCCCCC#N [Example 29, 5-(4-Acetyl-2-hexyl-5-hydroxyphenoxy)-pentanenitrile] | 51% | 12% |  |  |
| C=CCCOc1cc(O)c(C(C)=O)cc1CC=C [Example 45, 4-(3-Butenyloxy)-2-hydroxy-5-allylacetophenone] | 51% | 15% |  |  |
| C=CCc1cc(C(C)=O)c(O)cc1OCCCCN1CCOCC1 [Example 75, 2-Hydroxy-4-[4-(4-morpholino)butoxy]-5-allylacetophenone hydrochloride] | 0% | 0% |  |  |
| C=CCCCCOc1cc(O)c(C(C)=O)cc1CC=C [Example 46, 4-(5-Hexenyloxy)-2-hydroxy-5-allylacetophenone] | 72% | 26% |  |  |
| CCc1cc(C(=O)c2ccc(C(=O)O)cc2)c(O)cc1OCCCCC#N [Example 91, 4[4-(4-Cyanobutoxy)-5-ethyl-2-hydroxybenzoyl]benzoic acid] | 26% | 20% |  |  |
| C=CCc1cc(C(C)=O)c(O)cc1OCCCCC#N [Example 139, 5-(4-Acetyl-5-hydroxy-2-allylphenoxy)pentanenitrile] |  | 53% |  | 92% |
| CCCCCc1cc(C(C)=O)c(O)cc1OCCCCC#N [Example 31, 5-(4-Acetyl-5-hydroxy-2-pentylphenoxy)-pentanenitrile] | 30% | 14% |  |  |
| C=CCc1cc(C(C)=O)c(O)cc1OCCCCCCCCCCC#N [Example 70, 11-(4-Acetal-5-hydroxy-2-allylphenoxy)-undecanenitrile] | 50% | 14% |  |  |
| CCCc1cc(C(C)=O)c(O)cc1OCCCCNC(C)=O [Example 77, N-[4-(4-Acetyl-5-hydroxy-2-propylphenoxy)-butyl]acetamide] | 71% | 23% |  |  |
| CCc1cc(C(=O)CCCC(=O)O)c(O)cc1OCCCCC#N [Example 88, 5-[(4-Cyanobutoxy)-5-ethyl-2-hydroxybenzene]-5-oxopentanoic acid] | 19% | -1% |  |  |
| C=CCc1cc(C(C)=O)c(O)cc1OCc1ccc(CC#N)cc1 [Example 71, 4-[(4-Acetyl-5-hydroxy-2-allylphenoxy)-methyl]benzeneacetonitrile] | 30% | 17% |  |  |
| C=CCc1cc(C(C)=O)c(O)cc1OCCCCCC(=O)OC [Example 94, 6-(4-Acetyl-5-hydroxy-2-allylphenoxy)hexanoic acid, methyl ester] | 106% | 64% |  |  |
| CCCc1cc(C(C)=O)c(O)cc1OCCCCN [Example 74, 4-(4-Aminobutoxy)-2-hydroxy-5-propylacetophenone hydrochloride] | 0% | 0% |  |  |
| C=CCc1cc(C(C)=O)c(O)cc1OCCCCc1nnnn1C [Example 119, 2-Hydroxy-4-[4-(1-methyl-lH-tetrazol-5-yl)-butoxy]-5-allylacetophenone] | 57% | 13% |  |  |
| C=CCc1cc(C(C)=O)c(O)cc1OCCCCCCCC#N [Example 69, 8-(4-Acetyl-5-hydroxy-2-allylphenoxy)octanenitrile] | 88% | 51% |  |  |

From patent publication US5098613A, “Anti-inflammatory agents” (Eli Lilly and Company, priority 1990, dated 1992)
